Reference: US9745360B2 (Sanofi, priority 2012, dated 2017)
Converted amounts (≈) assume the structure as drawn. Where two headings read alike, the source gives them in different places. *1 amine or outer side, *2 acyl side, *3 side chain or, on linkers, in order; H or OH if unused. Where a SMILES comes first, the peptide text is derived from it. Side-chain parts run from the residue outwards. [ ]: non-standard residue; d: D form. The star is where a group is joined. γGlu = O=C(O)[C@H](CCC(=O)[*:2])N[*:1]; Palmitoyl = CCCCCCCCCCCCCCCC(=O)*; αMeK = C[C@](N)(CCCCN)C(=O)O; Aib = CC(C)(N)C(=O)O

How the values were obtained:
[1] = Solubility testing in buffer, HPLC-UV of supernatant; type: physicochemical; settings: buffer, target concentration 1.0 mg/mL
Procedure: (§1) Solubility and chemical stability of peptidic compounds were assessed as described in Methods.

[2] = Chemical stability in solution, 7 days at 25° C., % remaining peptide; type: physicochemical; settings: % remaining peptide after 7 days at 25° C.
Procedure: The chemical stability is expressed as “% remaining peptide”.
as §1

[3] = Pharmacokinetic testing in mice, s.c., LC/MS of plasma; type: in vivo; settings: mouse, sc, 1 mg/kg s.c.
Procedure: Mice were dosed 1 mg/kg subcutaneously (s.c.).
(§2) Pharmacokinetic profiles were determined as described in Methods.

[4] = Pharmacokinetic testing in female Göttinger minipigs, s.c., LC/MS of plasma; type: in vivo; settings: minipig, sc, Mini pigs, 0.1 mg/kg s.c.
Procedure: as §2

[5] = Subchronic effect on body weight in female diet-induced obese (DIO) C57BL/6NCrl mice (method 2); type: in vivo; settings: for Overall weight change: 3-week treatment, mean ± SEM; for decrease of body weight, relative change from baseline: 3 weeks
Procedure: Female C57BL/6NCrl mice were housed in groups in a specific pathogen-free barrier facility on a 12 h light/dark cycle with free access to water and high-fat diet. After 14 weeks on high-fat diet, mice were stratified to treatment groups (n=8), so that each group had similar mean body weight. An aged-matched group with ad libitum access to standard chow and water was included as standard control group.
Before the experiment, mice were subcutaneously (s.c.) injected with vehicle solution and weighed for 3 days to acclimate them to the procedures. […] Body weight was recorded daily.
Statistical analyses were performed with Everstat 6.0 by repeated measures two-way ANOVA and Dunnett's post-hoc analyses (glucose profile) and 1-way-ANOVA, followed by Dunnett's post-hoc test (body weight, body fat). Differences versus vehicle-treated DIO control mice were considered statistically significant at the p<0.05 level.
Subchronic effects of SEQ ID NO: 11 after subcutaneous treatment on body weight in female diet-induced obese (DIO) C57BL/6NCrl mice (14 weeks of prefeeding with high-rat diet, method 2)
Female obese C57BL/6NCrl mice were treated for 3 weeks once daily subcutaneously in the late afternoon, prior at the end of the light phase (12 h lights on) with 3 μg/kg and 10 μg/kg SEQ ID NO: 11 or vehicle. Body weight was recorded daily.

[6] = system: non-fasted female diabetic dbdb-mice; assay: Glucose lowering in non-fasted female diabetic dbdb-mice; type: in vivo; settings: 3 μg/kg s.c., at 240 min, kept to 480 min, baseline 20-22 mmol/l
Description: Female diabetic dbdb-mice of mean non-fasted glucose value of 20-22 mmol/l and a body weight of 42 g+/−0.6 g (SEM) were used. Mice were individually marked and were adapted to housing conditions for at least one week.
3-5 days prior to study start mice were assigned to groups and cages (4 mice per cage, 8 per group, control group 16) according to their non-fasted glucose values to ensure even distribution of lower and higher values between groups (stratification). On the study day, mice were weighed and dosed (t=0). Immediately prior to compound administration feed was removed while water remained available, and a first blood sample at a tail incision was drawn (baseline). Further blood samples were drawn at the tail incision at 30, 60, 90, 120, 240, 360, and 480 min.
Statistical analyses are performed with Everstat Version 6.0 based on SAS by 2-way-ANOVA on repeated measures, followed by Dunnett's post-hoc test against vehicle-control. Differences are considered statistically significant at the p<0.05 level.

female NMRI-mice = assay: Gastric emptying and intestinal passage in female NMRI-mice; type: in vivo
Procedure: Female NMRI-mice of a body weight between 20 and 30 g were used. Mice were adapted to housing conditions for at least one week.
Mice were overnight fasted, while water remained available all the time. On the study day, mice were weighed, single-caged and allowed access to 500 mg of feed for 30 min, while water was removed. At the end of the 30 min feeding period, remaining feed was removed and weighed. Then, the test compound/reference compound or its vehicle in the control group was administered subcutaneously. 60 min later, to allow the compound to reach relevant plasma exposure, a coloured, non-caloric bolus was instilled via gavage into the stomach. After another 30 min, the animals were sacrificed and the stomach and the small intestine prepared. The filled stomach was weighed, emptied, carefully cleaned and dried and reweighed. The stomach content, calculated as weight of filled subtracted by the weight of emptied stomach, indicated the degree of gastric emptying. The small intestine was straightened without force and measured in length. Then the distance from the gastric beginning of the gut to the tip of the farthest travelled intestinal content bolus was measured. The intestinal passage was given as ratio in percent of the latter distance and the total length of the small intestine.
Statistical analyses were performed with Everstat 6.0 by 1-way-ANOVA, followed by Dunnett's as post-hoc test. Dunnett's Test was applied to compare versus vehicle control. Differences were considered statistically significant at the p<0.05 level.
Female NMRI-mice, weighing on average 25-30 g, received 1, 10 and 100 μg/kg of SEQ ID NO: 11, or phosphate buffered saline (vehicle control) subcutaneously, 30 min prior to the administration of the coloured bolus. 30 min later, the assessment of stomach contents and intestinal passage was done (FIG. 8).

For `CCCCCCCCCCCCCCCC(=O)N[C@@H](CCC(=O)NCCCC[C@H](NC(=O)[C@H](CCC(N)=O)NC(=O)[C@@H](NC(=O)[C@H](CO)NC(=O)[C@H](CC(C)C)NC(=O)[C@H](CC(=O)O)NC(=O)[C@H](CO)NC(=O)[C@@H](NC(=O)[C@H](Cc1ccccc1)NC(=O)[C@@H](NC(=O)CNC(=O)[C@H](CCC(=O)O)NC(=O)C(C)(C)NC(=O)[C@@H](N)Cc1ccc(O)cc1)[C@@H](C)O)[C@@H](C)O)[C@@H](C)CC)C(=O)N[C@@H](CCC(=O)O)C(=O)N[C@@H](CCC(=O)O)C(=O)N[C@@H](CCCNC(=N)N)C(=O)N[C@@H](C)C(=O)N[C@@H](C)C(=O)N[C@@](C)(CCCCN)C(=O)N[C@@H](CCC(=O)O)C(=O)N[C@@H](Cc1ccccc1)C(=O)N[C@H](C(=O)N[C@@H](CCC(=O)O)C(=O)N[C@@H](Cc1c[nH]c2ccccc12)C(=O)N[C@@H](CC(C)C)C(=O)N[C@@H](CCCCN)C(=O)N[C@@H](CC(N)=O)C(=O)N[C@H](C(=O)NCC(=O)N1CCC[C@H]1C(=O)N[C@@H](CO)C(=O)N[C@@H](CO)C(=O)NCC(=O)N[C@@H](C)C(=O)N1CCC[C@H]1C(=O)N1CCC[C@H]1C(=O)N1CCC[C@H]1C(=O)N[C@@H](CO)C(N)=O)[C@@H](C)O)[C@@H](C)CC)C(=O)O` [SEQ ID NO: 11, Y-Aib-E-G-T-F-T-S-D-L-S-I-Q-K(γE-x53)-E-E-R-A-A-(S)MeLys-E-F-I-E-W-L-K-N-T-G-P-S-S-G-A-P-P-P-S-NH2] (H-Y[Aib]EGTFTSDLSIQK([γGlu-Palmitoyl])EERAA[αMeK]EFIEWLKNTGPSSGAPPPS-NH2), the solubility at 2 h ([1]; pH 4.5, read-out: Solubility (pH 4.5)) was 964 µg/mL (≈ 208 µM), the solubility at 2 h ([1]; pH 7.4, read-out: Solubility (pH 7.4)) was 900 µg/mL (≈ 194 µM) and the “Stability (pH 4.5)” value ([2]; pH 4.5) was 100.0%. For the same molecule, the “Stability (pH 7.4)” value ([2]; pH 7.4) was 99.0%, the Cmax [3] was 5940 ng/mL and the half-life [3] was 4.3 h. It also gave a Cmax [4] of 302 ng/mL, a half-life [4] of 12.6 h and an Overall weight change ([5]; 3 μg/kg s.c. once daily) of -3.2 ± 0.6 g. The “decrease of body weight, relative change from baseline” value ([5]; 3 μg/kg s.c. once daily) was 7.6%, the Overall weight change ([5]; 10 μg/kg s.c. once daily) was -6.8 ± 0.7 g and the “decrease of body weight, relative change from baseline” value ([5]; 10 μg/kg s.c. once daily) was 17.4%. For the same molecule, the “maximal effect, glucose reduction” value [6] was roughly 11 mmol/L, the “increase of remaining gastric contents” value (female NMRI-mice; 1 μg/kg s.c.) was 17% and the “reduction of intestinal passage” value (female NMRI-mice; 1 μg/kg s.c.) was 44%. The “increase of remaining gastric contents” value (female NMRI-mice; 10 μg/kg s.c.) was 97%, the “reduction of intestinal passage” value (female NMRI-mice; 10 μg/kg s.c.) was 68% and the “increase of remaining gastric contents” value (female NMRI-mice; 100 μg/kg s.c.) was 106%. The “reduction of intestinal passage” value (female NMRI-mice; 100 μg/kg s.c.) was 69%.
